Assay results from patent publication CN112159318A, “一种具有抗病毒活性的大叶桉酮及其制备方法和用途” (Kunming Institute of Botany of CAS, priority 2020, dated 2021).
Entries after “also recorded” stand apart in the source; their conditions may differ.

What was measured:
[1] = test system: viral RNA polymerase [病毒RNA聚合酶]; settings: adenosine analogue; cited from earlier work
[2] = test system: Zika virus [寨卡病毒]; settings: cited from earlier work
[3] = biological target: NS5 methyltransferase [NS5甲基转移酶]; settings: NS5 methyltransferase inhibitors; cited from earlier work
[4] = test system: ZIKV SZ-WIV01; test: Plaque assay, ZIKV SZ-WIV01 in Vero cells; assay type: cell-based, Zika virus; settings: for EC50: Zika virus, Vero, 96 h
[5] = test system: ZIKV MR766; test: Plaque assay, ZIKV MR766 in Vero cells; assay type: cell-based; settings: Zika virus, 96 h
[6] = MTT cytotoxicity in Vero cells; assay type: cell-based, African green monkey; settings: monkey
[7] = test system: Vero cells [Vero细胞]; test: MTT cytotoxicity in Vero cells; assay type: cell-based, African green monkey; settings: Vero CC50 relative to anti-ZIKV EC50; strain not stated
[8] = test system: ZIKV SZ-WIV01; test: qRT-PCR of ZIKV RNA in supernatant of infected Vero cells; assay type: cell-based, Zika virus; settings: ZIKV SZ-WIV01 500 PFU, 3.125-25 μM, 48 h
[9] = test system: ZIKV MR766 E protein [ZIKV E蛋白]; test: Western blot of ZIKV E protein expression; assay type: cell-based, Zika virus; settings: 48 h
[10] = test system: ZIKV SZ-WIV01; test: Immunofluorescence of ZIKV E protein positive Vero cells; assay type: cell-based, Zika virus; settings: ZIKV SZ-WIV01 MOI=1, 50 μM, 48 h, vs DMSO
[11] = test system: ZIKV; test: qRT-PCR of ZIKV replication in A549 cells; assay type: cell-based, Zika virus; settings: human A549 cells, 0.4-50 μM
[12] = test system: ZIKV; test: qRT-PCR of ZIKV replication in Huh-7 cells; assay type: cell-based, Zika virus; settings: human Huh-7 cells, 0.4-50 μM
[13] = test system: ZIKV SZ-WIV01; test: Adsorption (binding) assay, qRT-PCR of ZIKV on Vero cell surface; assay type: cell-based, Zika virus; settings: ZIKV SZ-WIV01 MOI=1, 50 μM, 4°C, 1 h, vs DMSO
[14] = test system: ZIKV; test: Internalization of ZIKV into host cells; assay type: cell-based, Zika virus
[15] = test system: AXL; test: Flow cytometry of AXL expression on Vero cell surface; assay type: cell-based, African green monkey; settings: Vero cells, 50 μM, 37°C 1 h, then ZIKV SZ-WIV01 MOI=1, 1 h
[16] = test system: ZIKV SZ-WIV01; test: Time-of-addition assay, qRT-PCR, Vero cells; assay type: cell-based, Zika virus; settings: ZIKV SZ-WIV01 MOI=1, 50 μM
[17] = biological target: T1, RNA-dependent RNA polymerase (RdRp) of ZIKV NS5 [ZIKV的RNA依赖的RNA聚合酶(RdRp)] (Zika virus, UniProt Q32ZE1); test: ZIKV NS5 RdRp activity, Gluc reporter in NS5-expressing HEK-293T cells; assay type: cell-based; settings: 24 h
T1 construct: 1μg ZIKV NS5载体共转染到HEK-293T细胞中; expressed in transfected cells; host or cells: HEK-293T
T1 sequence (Q32ZE1 2517-3419): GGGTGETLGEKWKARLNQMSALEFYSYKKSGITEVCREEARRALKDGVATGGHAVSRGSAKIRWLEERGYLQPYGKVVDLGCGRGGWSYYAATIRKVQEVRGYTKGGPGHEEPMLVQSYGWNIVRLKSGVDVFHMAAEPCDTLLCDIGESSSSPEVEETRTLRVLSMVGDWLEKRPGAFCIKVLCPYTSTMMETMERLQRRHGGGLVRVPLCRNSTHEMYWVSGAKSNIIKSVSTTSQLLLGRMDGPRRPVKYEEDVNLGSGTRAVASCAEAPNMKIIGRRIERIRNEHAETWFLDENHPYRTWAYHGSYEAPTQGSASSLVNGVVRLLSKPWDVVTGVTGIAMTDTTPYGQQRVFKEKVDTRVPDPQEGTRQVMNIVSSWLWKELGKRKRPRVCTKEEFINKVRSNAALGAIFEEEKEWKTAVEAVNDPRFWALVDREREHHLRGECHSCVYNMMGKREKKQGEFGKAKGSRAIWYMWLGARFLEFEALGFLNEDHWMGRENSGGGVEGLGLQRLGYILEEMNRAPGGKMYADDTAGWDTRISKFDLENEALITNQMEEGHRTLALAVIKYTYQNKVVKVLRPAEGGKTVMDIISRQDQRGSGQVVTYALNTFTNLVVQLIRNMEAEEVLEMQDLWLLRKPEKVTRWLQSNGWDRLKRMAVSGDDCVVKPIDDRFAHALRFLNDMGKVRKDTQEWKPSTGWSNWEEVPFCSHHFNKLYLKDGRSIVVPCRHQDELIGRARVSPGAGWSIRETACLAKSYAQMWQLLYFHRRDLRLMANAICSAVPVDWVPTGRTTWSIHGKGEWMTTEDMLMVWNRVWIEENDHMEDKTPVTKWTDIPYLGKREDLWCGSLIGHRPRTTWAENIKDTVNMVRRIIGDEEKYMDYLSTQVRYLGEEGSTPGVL

[18] = test system: Gluc luciferase [荧光素酶Gluc]; test: Gluc activity in HEK-293T cells expressing only Gluc (counter-test); assay type: cell-based
[19] = test system: ZIKV NS5; test: Western blot of NS5 expression in HEK-293T cells; assay type: cell-based, Zika virus; settings: 24 h
[20] = test system: Zika virus [寨卡病毒]; settings: cited from earlier work; remark: listed apart in the source

Structure (SMILES): Nc1ncnc2c([C@@H]3N[C@H](CO)[C@@H](O)[C@H]3O)c[nH]c12 [BCX4430]
- inhibition of viral RNA polymerase function [1]: 能抑制病毒RNA聚合酶的功能

Structure (SMILES): Cc1c(-c2ccc(-c3ccccc3F)cc2)nc2ccc(F)cc2c1C(=O)O [Brequinar]
- anti-Zika virus activity [2]: 具有抗寨卡病毒活性

Structure (SMILES): Nc1ncnc2c1ncn2[C@@H]1O[C@H](CSCC[C@H](N)C(=O)O)[C@@H](O)[C@H]1O [S-腺苷基-同型半胱氨酸, S-adenosyl-L-homocysteine]
- IC50 [3]: 0.43 µM

Structure (SMILES): NC(=O)c1ncn([C@@H]2O[C@H](CO)[C@@H](O)[C@H]2O)n1 [利巴韦林, reference compound]
- EC50 [4]: 47.5 ± 4.73 µM
- EC50 [5]: 58.8 ± 1.86 µM
- anti-Zika virus activity [2]: 具有抗寨卡病毒活性

Structure (SMILES): COc1cc(O)c(C(CC(C)C)c2c(O)cc(OC)c(C(=O)C(C)C)c2O)c(O)c1C(=O)C(C)C [大叶桉酮G, Eucalyprobusone G]
- inhibition of ZIKV-induced plaque formation ([4]; Vero cells, 3.125-25 μM, vs DMSO): 以剂量依赖方式抑制ZIKV感染诱导的噬斑形成
- EC50 [4]: 10.1 ± 3.84 µM
- anti-Zika virus activity compared with positive control ribavirin ([4]; plaque assay, ZIKV SZ-WIV01 and ZIKV MR766): 优于阳性对照药利巴韦林; also recorded: 显著高于阳性对照药利巴韦林
- EC50 [5]: 0.43 ± 0.08 µM
- selectivity ratio ([6]; vero cells, Vero CC50 relative to anti-ZIKV EC50, strain not stated, read-out: therapeutic index): > 49.5
- CC50 at 96 h ([6]; MTT, Vero cells, 4 days): > 500 µM
- therapeutic index [7]: > 49.5
- inhibition of ZIKV RNA production [8]: 以剂量依赖性的方式抑制ZIKV RNA的产生
- expression of ZIKV E protein (Western blot) ([9]; ZIKV MR766, 2 μM or higher): 几乎完全抑制了E蛋白的表达
- expression of ZIKV E protein (Western blot), concentration dependence ([9]; ZIKV MR766, 0.08-50 μM): 随着大叶桉酮G浓度的增加,ZIKV E蛋白的表达逐渐被抑制
- ZIKV E protein positive cells (immunofluorescence) [10]: ZIKV E蛋白阳性细胞显著减少
- inhibition of ZIKV replication [11]: 以剂量依赖型方式抑制两种人源细胞中ZIKV的复制
- inhibition of ZIKV replication [12]: 以剂量依赖型方式抑制两种人源细胞中ZIKV的复制
- ZIKV adsorption (binding) to host cells [13]: 抑制了ZIKV的吸附; also recorded: 抑制ZIKV与宿主细胞的结合
- internalization of ZIKV into host cells [14]: 抑制ZIKV与宿主细胞的结合和内化
- AXL expression [15]: 不影响AXL的表达
- stage of viral life cycle acted on ([16]; added 0-12 h post infection): 主要抑制ZIKV RNA的合成
- inhibition of ZIKV replication when added 6 h post infection ([16]; supernatant at 24 h): 显著抑制了ZIKV的复制
- inhibition of NS5-induced increase in Gluc activity ([17]; 10 μmol/L): 几乎完全抑制
- inhibition of Gluc activity in NS5-expressing cells (RdRp activity) ([17]; 1.25-10 μM): 以剂量依赖性的方式抑制了表达NS5的细胞中的荧光素酶Gluc的活性; also recorded: 可以抑制NS5中RdRp结构域的活性; also recorded: 呈剂量依赖型方式降低Gluc的活性
- effect on Gluc activity in cells expressing only Gluc [18]: 对荧光素酶的活性没有影响; also recorded: 对Gluc的活性没有影响
- effect on NS5 expression [19]: 不影响NS5的表达; also recorded: 对NS5的表达没有影响

Structure (SMILES): Cc1ccc(C(=O)Nc2ccc(S(=O)(=O)O)c3cc(S(=O)(=O)O)cc(S(=O)(=O)O)c23)cc1NC(=O)c1cccc(NC(=O)Nc2cccc(C(=O)Nc3cc(C(=O)Nc4ccc(S(=O)(=O)O)c5cc(S(=O)(=O)O)cc(S(=O)(=O)O)c45)ccc3C)c2)c1 [苏拉明]
- effect on Zika virus binding and attachment to host cells [20]: 可以影响寨卡病毒的结合以及与宿主细胞的附着

Structure (SMILES): Nc1ncnc2c1ncn2[C@@H]1O[C@H](C[C@@H](N)CC[C@H](N)C(=O)O)[C@@H](O)[C@H]1O [西奈芬净, Sinefungin]
- IC50 [3]: 1.18 µM

Structure (SMILES): COc1c(C)c2c(c(O)c1C/C=C(\C)CCC(=O)O)C(=O)OC2 [麦考酚酸]
- anti-Zika virus activity [2]: 具有抗寨卡病毒活性
